Tests used:
[1] = tested on: HIV mutant strain 2 (E92Q/E138T/G140S/Q148H); assay: Test Example 2: resistance evaluation test (HeLa-CD4 reporter), mutant strain 2; type: cell-based; conditions: FC=EC50 of mutant strain/EC50 of wild strain; HeLa-CD4 cells
In short: (§1)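 HeLa-CD4 reporter cells were infected with wild-type or mutant HIV in the presence of serially diluted compound and cultured 3 days. Cell lysates were read by chemiluminescent reporter assay after about 1 h at room temperature. Fold change was calculated as mutant EC50 divided by wild-type EC50.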

HIV [2] = assay: microbe, parasite or virus in culture; type: cell-based; conditions: Human immunodeficiency virus 1, MT4, 96 h, read-out: EC50 (50% HIV inhibition concentration), MT-4 cells, HIV, cultured four days, MTT; compounds of formula (I) of (A)
Procedure: A serial dilution series of test samples was prepared in 96-well microplates (50 μL/well).
100 μL/well in each case were dispensed onto plates having test samples of 2.5×10^5/mL MT-4 cell suspension, and HIV virus solution was then dispensed thereto in the amount of 50 μL/well. Mixing was performed using a plate mixer and culturing was performed for four days in a CO2 incubator. MTT (3-(4,5-dimethylthiazol-2-yl)-2,5-diphenyltetrazolium bromide) liquid was dispensed into each well in the amount of 30 μL in each case. The reaction was conducted for 1 h in a CO2 incubator. 150 μL of supernatant were removed from each well, taking care not to aspirate any cells. 150 μL of cell solution were added, and thorough mixing was performed with a plate mixer until all the cells had been dissolved. The optical absorbance of the mixed plates was measured at two wavelengths: 560 nm/690 nm, with a microplate reader.

[3] = Test Example 8: metabolic stability test; type: in vitro ADME, human
In short: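 Pooled human liver microsomes (0.5 mg protein/mL, Tris-HCl pH 7.4) incubated with compound and 1 mmol/L NADPH for 0 or 30 min at 37° C. After methanol/acetonitrile quench, remaining parent was quantified by LC/MS/MS or SPE/MS and expressed as % of the 0 min amount.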

[4] = molecular target: T1, voltage-gated sodium channel (Nav 1.5 channel) (Homo sapiens, UniProt Q14524); assay: Test Example 14: Nav test (patch clamp, HEK cells); type: cell-based; conditions: HEK cells expressing Nav 1.5 channel, whole cell patch clamp
T1 construct: expressed in transfected cells; host or cells: HEK cells
T1 sequence (Q14524 whole entry): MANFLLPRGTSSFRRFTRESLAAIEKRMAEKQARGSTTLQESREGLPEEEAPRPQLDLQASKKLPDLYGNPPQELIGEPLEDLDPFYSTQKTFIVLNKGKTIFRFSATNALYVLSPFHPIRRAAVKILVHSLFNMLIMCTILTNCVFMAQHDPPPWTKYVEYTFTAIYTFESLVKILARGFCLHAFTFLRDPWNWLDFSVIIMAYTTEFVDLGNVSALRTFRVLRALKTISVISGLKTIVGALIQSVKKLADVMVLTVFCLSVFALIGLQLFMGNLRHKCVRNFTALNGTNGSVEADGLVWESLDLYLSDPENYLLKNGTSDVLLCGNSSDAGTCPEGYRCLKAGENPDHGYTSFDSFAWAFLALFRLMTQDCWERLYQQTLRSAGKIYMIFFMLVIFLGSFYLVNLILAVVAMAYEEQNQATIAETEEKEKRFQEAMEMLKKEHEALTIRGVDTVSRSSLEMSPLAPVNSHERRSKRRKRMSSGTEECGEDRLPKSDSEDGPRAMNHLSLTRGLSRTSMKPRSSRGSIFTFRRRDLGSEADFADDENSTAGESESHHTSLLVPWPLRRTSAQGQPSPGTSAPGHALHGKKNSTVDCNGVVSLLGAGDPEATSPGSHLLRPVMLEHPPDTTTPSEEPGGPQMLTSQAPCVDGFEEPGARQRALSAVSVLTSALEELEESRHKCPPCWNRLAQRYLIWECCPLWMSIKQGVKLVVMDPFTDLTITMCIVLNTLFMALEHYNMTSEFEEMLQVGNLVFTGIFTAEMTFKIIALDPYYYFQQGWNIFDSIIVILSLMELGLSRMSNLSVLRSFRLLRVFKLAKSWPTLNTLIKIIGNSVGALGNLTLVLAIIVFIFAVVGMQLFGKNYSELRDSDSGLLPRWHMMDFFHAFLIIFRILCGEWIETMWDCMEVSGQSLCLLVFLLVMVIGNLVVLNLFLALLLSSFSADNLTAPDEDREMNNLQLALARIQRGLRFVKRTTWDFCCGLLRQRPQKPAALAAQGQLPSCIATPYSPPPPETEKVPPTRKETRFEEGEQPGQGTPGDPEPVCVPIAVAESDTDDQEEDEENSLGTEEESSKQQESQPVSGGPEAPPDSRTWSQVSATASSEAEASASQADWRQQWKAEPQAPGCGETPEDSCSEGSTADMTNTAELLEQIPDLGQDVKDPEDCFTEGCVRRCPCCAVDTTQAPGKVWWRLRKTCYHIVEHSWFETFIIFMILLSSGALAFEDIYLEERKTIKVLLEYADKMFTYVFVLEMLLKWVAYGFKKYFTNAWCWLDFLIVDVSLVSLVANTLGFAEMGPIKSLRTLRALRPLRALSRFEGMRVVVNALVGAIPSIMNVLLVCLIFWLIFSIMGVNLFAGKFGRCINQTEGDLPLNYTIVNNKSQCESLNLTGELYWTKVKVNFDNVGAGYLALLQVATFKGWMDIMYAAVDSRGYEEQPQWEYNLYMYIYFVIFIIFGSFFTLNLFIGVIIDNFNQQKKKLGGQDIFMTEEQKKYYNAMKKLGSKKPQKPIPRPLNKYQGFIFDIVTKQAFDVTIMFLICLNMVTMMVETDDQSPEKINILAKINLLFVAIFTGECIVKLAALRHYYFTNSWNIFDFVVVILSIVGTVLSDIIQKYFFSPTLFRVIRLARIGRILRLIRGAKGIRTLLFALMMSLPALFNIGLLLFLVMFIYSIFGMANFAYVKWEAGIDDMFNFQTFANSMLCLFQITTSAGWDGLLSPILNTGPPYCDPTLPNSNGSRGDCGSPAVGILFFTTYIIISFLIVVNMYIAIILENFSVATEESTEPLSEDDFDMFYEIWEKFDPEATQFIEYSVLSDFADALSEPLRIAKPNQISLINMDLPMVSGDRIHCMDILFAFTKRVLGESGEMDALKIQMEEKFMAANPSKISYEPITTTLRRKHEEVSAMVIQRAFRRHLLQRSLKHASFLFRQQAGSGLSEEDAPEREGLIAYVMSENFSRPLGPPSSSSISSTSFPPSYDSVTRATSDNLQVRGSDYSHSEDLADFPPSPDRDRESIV
Procedure: Using a fully automatic patch clamp system (QPatch: Sophion Bioscience A/S), by the whole cell patch clamp method, the cells were maintained at a membrane potential of −100 mV and the induced INa when a −10 mV depolarization stimulus was applied for 20 msec was recorded. […] From the INa obtained, using analysis software (QPatch: Sophion Bioscience A/S), the absolute value of the maximum peak current was measured, with reference to the current value at the maintained membrane potential.

[5] = tested on: HIV mutant strain 1 (E138K/G140S/Q148H/N155H); assay: Test Example 2: resistance evaluation test (HeLa-CD4 reporter), mutant strain 1; type: cell-based; conditions: FC=EC50 of mutant strain/EC50 of wild strain; HeLa-CD4 cells
In short: as §1

HIV [6] = assay: Test Example 16: anti-HIV activity in the presence of human serum protein (MT-4 cells); type: cell-based; conditions: 100% extrapolation value, PS=4×(EC50 with 25% human serum protein/EC50 with no human serum protein)
Procedure: A stage dilution series of the test samples was created on a 96-well microplate (50 μL/well).
Aliquots of human serum protein solution (human serum protein concentration 50%) were dispensed in the amount of 100 μL/well to a 96-well microplate containing the test sample. This was then left to stand for 1 h at room temperature. Culture medium in the amount of 100 μL/well in each case was dispensed to a serum-free plate for control purposes. Aliquots of MT-4 cells in the amount of 3.0×10^5/well and HIV virus liquid in the amount of 3 μL/well were mixed for the necessary number of wells and reacted for 1 h at 37° C. After the reaction, the cell suspension was centrifuged and the supernatant discarded; aliquots of infected cells were distributed to culture medium in the amount of 50 μL/well and were dispensed in the amount of 50 μL/well in each case into the wells of a 96-well microplate containing test samples and human serum protein (human serum protein concentration: 25%). Mixing was performed using a plate mixer and culturing was performed for four days with a CO2 incubator. […] MTT(3-(4, 5-dimethylthiazol-2-yl)-2, 5-diphenyltetrazolium bromide) liquid in the amount of 30 μL was dispensed to each of the wells. The reaction was performed for 1 h in a CO2 incubator. 150 μL supernatant was removed to avoid aspirating cells from the wells. 150 μL of cell solution was added and thorough mixing was performed, using a plate mixer, until all the cells were dissolved. The optical absorbance on the mixed plate was measured at two wavelengths, namely, 560 nm/690 nm, using a microplate reader.
Next, the potency shift (PS) was calculated, using the following formula. The PS is the value of the human serum protein concentration, extrapolated to 100%.

HIV [7] = assay: Test Example 3: test for confirmation of combined use effect; type: cell-based; design: key to D value (dosewise additivity value): <-0.1 synergy, -0.1 to 0.1 additive, >0.1 antagonism
Description: The two compounds in respect of which the effect of combined use was desired to be examined were mixed in various ratios, and the anti-HIV activity (50% HIV inhibiting concentration) for each combination was found by the method of test example 1. […] A brief description of the method of calculating the D value is given below.
The D value that is found by evaluating the anti-HIV activity of respective combinations of M concentrations of compound X1 and N concentrations of compound X2 is calculated by the following mathematical expression 1.
The effect of combined use was evaluated in terms of the D value in accordance with the following criteria • −0.5 to −0.2: strong synergetic effect • −0.2 to −0.1: weak synergetic effect • […]: additive synergetic effect • 0.1 to 0.2: weak antagonism • 0.2 to 0.5: strong antagonism

[8] = pooled human liver microsomes, 30 min at 37° C., NADPH, compound concentration 0.5 μmol/L
[9] = combination with compound (B) Compound C (CAI)
[10] = combination with compound (B) Darunavin (PI)
[11] = combination with compound (B) Darunavir (PI)
[12] = combination with compound (B) GS-6207 (CAI)
[13] = combination with compound (B) GSK2838232 (maturation inhibitor)
[14] = combination with compound (B) Lilpiperine (polymerase inhibitor)
[15] = combination with compound (B) Ramipzin (3TC) (polymerase inhibitor)
[16] = combination with compound (B) Rilpivirine (polymerase inhibitor)

## CCN1C(=O)c2c(O)c(=O)c(-c3nnc(Cc4cc(F)c(F)cc4F)s3)cn2N2CCCC[C@@H]12 [Compound I-022]
[1]
  FC in respect of mutant strain 2 (E92Q/E138T/G140S/Q148H): 46
HIV [2]
  EC50: 4.8 nM
[3]; [8]
  Remaining percentage: 72.2%
[4]
  ratio of maximum peak current (INa) on application of compound to that on application of medium: 97.1%
[5]
  FC in respect of mutant strain 1 (E138K/G140S/Q148H/N155H): 23

## CCN1C(=O)c2c(O)c(=O)c(C(=O)NCc3ccc(F)cc3F)cn2N2C[C@@H](C)C[C@@H]12 [II-045]
[1]
  FC in respect of mutant strain 2 (E92Q/E138T/G140S/Q148H): 21
HIV [6]
  potency shift (PS) in the presence of human serum protein: 236
[3]; [8]
  Remaining percentage: 96%
[5]
  FC in respect of mutant strain 1 (E138K/G140S/Q148H/N155H): 19

## CCN1C(=O)c2c(O)c(=O)c(C(=O)NCc3cccc(Cl)c3F)cn2N2[C@H]3COCC3C[C@@H]12 (stereo partly drawn) [II-052]
[1]
  FC in respect of mutant strain 2 (E92Q/E138T/G140S/Q148H): 16
HIV [7]; [9]
  D value (dosewise additivity value): 0.038
  effect of combined use: Additive (−0.1 to −0.1: additive synergetic effect)
HIV [7]; [10]
  D value (dosewise additivity value): −0.076
HIV [7]; [11]
  effect of combined use: Additive (−0.1 to −0.1: additive synergetic effect)
HIV [7]; [12]
  D value (dosewise additivity value): −0.003
  effect of combined use: Additive (−0.1 to −0.1: additive synergetic effect)
HIV [7]; [13]
  D value (dosewise additivity value): −0.009
  effect of combined use: Additive (−0.1 to −0.1: additive synergetic effect)
HIV [7]; [14]
  effect of combined use: Additive (−0.1 to −0.1: additive synergetic effect)
HIV [7]; [15]
  D value (dosewise additivity value): −0.156
  effect of combined use: Weak synergy (−0.2 to −0.1: weak synergetic effect)
HIV [7]; [16]
  D value (dosewise additivity value): −0.020
HIV [2]
  EC50: 0.27 nM
[3]; human, microsomes, 0.5 h, 0.5 μmol/L, pH 7.4
  Remaining percentage: 61.6%
[5]
  FC in respect of mutant strain 1 (E138K/G140S/Q148H/N155H): 22

## CN1C(=O)c2c(O)c(=O)c(-c3nnc(Cc4ccc(F)cc4F)s3)cn2N2CCCC[C@@H]12 [II-098]
[1]
  FC in respect of mutant strain 2 (E92Q/E138T/G140S/Q148H): 12
HIV [2]
  EC50: 0.62 nM
[3]; [8]
  Remaining percentage: 109%
[4]
  ratio of maximum peak current (INa) on application of compound to that on application of medium: 96.7%
[5]
  FC in respect of mutant strain 1 (E138K/G140S/Q148H/N155H): 8.8

## CCN1C(=O)c2c(O)c(=O)c(-c3nnc(Cc4c(F)cc(F)cc4F)s3)cn2N2CCOC[C@@H]12 [II-106]
[1]
  FC in respect of mutant strain 2 (E92Q/E138T/G140S/Q148H): 20
HIV [2]
  EC50: 0.52 nM
[3]; [8]
  Remaining percentage: 95.3%
[4]
  ratio of maximum peak current (INa) on application of compound to that on application of medium: 109%
[5]
  FC in respect of mutant strain 1 (E138K/G140S/Q148H/N155H): 15

## CCN1C(=O)c2c(O)c(=O)c(-c3nnc(Cc4ccc(F)cc4F)s3)cn2N2[C@H](COC)CC[C@@H]12 [II-110]
[1]
  FC in respect of mutant strain 2 (E92Q/E138T/G140S/Q148H): 11
HIV [7]; [9]
  D value (dosewise additivity value): 0.075
  effect of combined use: Additive (−0.1 to −0.1: additive synergetic effect)
HIV [7]; [10]
  D value (dosewise additivity value): −0.058
HIV [7]; [11]
  effect of combined use: Additive (−0.1 to −0.1: additive synergetic effect)
HIV [7]; [12]
  D value (dosewise additivity value): 0.025
  effect of combined use: Additive (−0.1 to −0.1: additive synergetic effect)
HIV [7]; [13]
  D value (dosewise additivity value): −0.048
  effect of combined use: Additive (−0.1 to −0.1: additive synergetic effect)
HIV [7]; [14]
  effect of combined use: Additive (−0.1 to −0.1: additive synergetic effect)
HIV [7]; [15]
  D value (dosewise additivity value): −0.145
  effect of combined use: Weak synergy (−0.2 to −0.1: weak synergetic effect)
HIV [7]; [16]
  D value (dosewise additivity value): −0.073
HIV [2]
  EC50: 0.13 nM
[3]; [8]
  Remaining percentage: 96.5%
[4]
  ratio of maximum peak current (INa) on application of compound to that on application of medium: 89.3%
[5]
  FC in respect of mutant strain 1 (E138K/G140S/Q148H/N155H): 8.2

## CCN1C(=O)c2c(O)c(=O)c(-c3nnc(Cc4c(F)cc(F)cc4F)s3)cn2N2[C@H](COC)CC[C@@H]12 [II-117]
[1]
  FC in respect of mutant strain 2 (E92Q/E138T/G140S/Q148H): 11
HIV [2]
  EC50: 0.62 nM
[3]; [8]
  Remaining percentage: 93.4%
[4]
  ratio of maximum peak current (INa) on application of compound to that on application of medium: 88.8%
[5]
  FC in respect of mutant strain 1 (E138K/G140S/Q148H/N155H): 10

## CCN1C(=O)c2c(O)c(=O)c(-c3nnc(Cc4ccc(F)cc4)s3)cn2N2[C@H](COC)CC[C@@H]12 [II-118]
[1]
  FC in respect of mutant strain 2 (E92Q/E138T/G140S/Q148H): 31
HIV [2]
  EC50: 0.96 nM
[3]; [8]
  Remaining percentage: 92.4%
[4]
  ratio of maximum peak current (INa) on application of compound to that on application of medium: 86.2%
[5]
  FC in respect of mutant strain 1 (E138K/G140S/Q148H/N155H): 20

## C[C@H]1CC[C@H]2N(C)C(=O)c3c(O)c(=O)c(-c4nnc(Cc5ccc(F)cc5F)s4)cn3N2C1 [II-120]
[1]
  FC in respect of mutant strain 2 (E92Q/E138T/G140S/Q148H): 8
HIV [2]
  EC50: 0.25 nM
[3]; [8]
  Remaining percentage: 95.5%
[4]
  ratio of maximum peak current (INa) on application of compound to that on application of medium: 78.8%
[5]
  FC in respect of mutant strain 1 (E138K/G140S/Q148H/N155H): 5.8

## CCN1C(=O)c2c(O)c(=O)c(-c3nnc(Cc4c(F)cc(F)cc4F)s3)cn2N2C[C@@H](C)CC[C@@H]12 [II-156]
[1]
  FC in respect of mutant strain 2 (E92Q/E138T/G140S/Q148H): 4.6
HIV [2]
  EC50: 1.2 nM
[3]; [8]
  Remaining percentage: 91.3%
[5]
  FC in respect of mutant strain 1 (E138K/G140S/Q148H/N155H): 3.5

## COC[C@@H]1CC[C@H]2N(C)C(=O)c3c(O)c(=O)c(C(=O)NCc4c(F)cc(F)cc4F)cn3N12 [II-157]
[1]
  FC in respect of mutant strain 2 (E92Q/E138T/G140S/Q148H): 24
HIV [2]
  EC50: 0.7 nM
[3]; [8]
  Remaining percentage: 90%
[5]
  FC in respect of mutant strain 1 (E138K/G140S/Q148H/N155H): 53

Source: patent publication US12564595B2, “Prophylactic and therapeutic pharmaceutical agent for HIV infectious diseases characterized by comprising combination of integrase inhibitor and anti-HIV agent” (Shionogi & Co., Ltd., priority 2019, dated 2026)
